The target in this test is Recombinant human factor D (Homo sapiens (Human), UniProt P00746). The test is described as follows: Human Complement Factor D Assay: Method 1. It counts as biochemical. The following applies: recombinant human factor D 10 nM; substrate Z-Lys-thiobenzyl; fluorescence readout; read-out: IC50 (μM), Factor D inhibition using Method 1. Here is the method: Human Complement Factor D Assay: Method 1
Recombinant human factor D, sequence (P00746 26-253): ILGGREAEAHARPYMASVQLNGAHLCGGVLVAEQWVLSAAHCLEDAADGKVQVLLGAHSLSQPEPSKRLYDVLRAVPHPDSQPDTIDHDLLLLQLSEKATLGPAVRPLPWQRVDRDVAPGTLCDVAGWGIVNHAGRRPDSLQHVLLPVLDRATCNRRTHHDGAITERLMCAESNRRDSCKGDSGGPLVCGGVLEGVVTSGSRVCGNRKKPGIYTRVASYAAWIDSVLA
Recombinant human factor D (expressed in E. coli and purified using standard methods) at 10 nM concentration is incubated with test compound at various concentrations for 1 hour at room temperature in 0.1 M Hepes buffer, pH 7.5, containing 1 mM MgCl2, 1 M NaCl and 0.05% CHAPS. A synthetic substrate Z-Lys-thiobenzyl and 2,4-dinitrobenzenesulfonyl-fluoresceine are added to final concentrations of 200 μM and 25 μM, respectively. The increase in fluorescence is recorded at excitation of 485 nm and emission at 535 nm in a microplate spectrofluorimeter. IC50 values are calculated from percentage of inhibition of complement factor D-activity as a function of test compound concentration.
Turning to `NC(=O)c1nn(CC(=O)N2[C@@H]3C[C@@H]3C[C@H]2C(=O)Nc2ccn(CC(F)(F)F)n2)c2ccccc12` [Example 1, 1-(2-oxo-2-((1R,3S,5R)-3-(1-(2,2,2-trifluoroethyl)-1H-pyrazol-3-ylcarbamoyl)-2-azabicyclo[3.1.0]hexan-2-yl)ethyl)-1H-indazole-3-carboxamide], the IC50 came to 0.064 µM.

Regarding `NC(=O)c1nn(CC(=O)N2[C@@H]3C[C@@H]3C[C@H]2C(=O)Nc2ccn(CC(F)(F)F)n2)c2cnccc12` [Example 2, 1-(2-oxo-2-((1R,3S,5R)-3-((1-(2,2,2-trifluoroethyl)-1H-pyrazol-3-yl)carbamoyl)-2-azabicyclo[3.1.0]hexan-2-yl)ethyl)-1H-pyrazolo[3,4-c]pyridine-3-carboxamide], the IC50 worked out at 0.098 µM.

For the compound `CC(=O)c1nn(CC(=O)N2[C@@H]3C[C@@H]3C[C@H]2C(=O)Nc2ccn(CC(F)(F)F)n2)c2cnccc12` [Example 3, (1R,3S,5R)-2-(2-(3-acetyl-1H-pyrazolo[3,4-c]pyridin-1-yl)acetyl)-N-(1-(2,2,2-trifluoroethyl)-1 H-pyrazol-3-yl)-2-azabicyclo[3.1.0] hexane-3-carboxamide], the IC50 amounted to 0.083 µM.

On to `CC(C)n1ccc(NC(=O)[C@@H]2C[C@H]3C[C@H]3N2C(=O)Cn2nc(C(N)=O)c3ccccc32)n1` [Example 4, 1-(2-((1R,3S,5R)-3-(1-isopropyl-1H-pyrazol-3-ylcarbamoyl)-2-azabicyclo[3.1.0]hexan-2-yl)-2-oxoethyl)-1H-indazole-3-carboxamide], for which the IC50 was 0.17 µM.

Take `NC(=O)n1cc(NC(=O)N2[C@@H]3C[C@@H]3C[C@H]2C(=O)Nc2ccn(CC(F)(F)F)n2)c2ccccc21` [Example 5, (1R,3S,5R)—N2-(1-carbamoyl-1H-indol-3-yl)-N3-(1-(2,2,2-trifluoroethyl)-1H-pyrazol-3-yl)-2-azabicyclo[3.1.0]hexane-2,3-dicarboxamide]: the IC50 came to 0.032 µM.

One may read the IC50 as the concentration at which inhibition is half-maximal.
